Data on 40 compounds can be found in patent US20260035387A1 (BIOGEN MA INC., priority 2022, published 2026).

The IC50 is the concentration at which inhibition is half-maximal. Read a high IC50 as weaker potency.

The test system of the test is mutant Huntington (HTT) protein. In words: HTT Mutant HTRF iPSC assay (mHTT protein lowering). The class given is cell-based. The conditions noted are these: human iPSC derived from a HTT patient with a poly-Q49 mutation. For orientation: TR-FRET usually uses a lanthanide donor and a delayed reading to cut background.

Regarding `COc1nc(NC(=O)c2cc3ccc(N4CCC(N(C)C)C4)nc3s2)cn2cc(C)nc12` (single isomer, unassigned) [Compound 198], the IC50 is under 100 nM.

For the compound `COc1nc(NC(=O)c2cc3ccc(N4CCC(N(C)C)C4)nc3s2)cn2cc(C)nc12` (single isomer, unassigned) [Compound 199], the concentration for half-maximal inhibition (IC50) was under 100 nM.

For `COc1cn2nc(C)cc2cc1NC(=O)c1cc2ccc(N3CCC(N(C)C)C3)nc2s1` (single isomer, unassigned) [Compound 205], the IC50 is under 100 nM.

`COc1cn2nc(C)cc2cc1NC(=O)c1cc2ccc(N3CCC(N(C)C)C3)nc2s1` (single isomer, unassigned) [Compound 206] had a concentration for half-maximal inhibition (IC50) of under 100 nM.

For the compound `Cc1cn2cc(NC(=O)c3cc4ccc(N5CCC(NCC6CC6)C5)nc4s3)cc(F)c2n1` (single isomer, unassigned) [Compound 210], the IC50 is under 100 nM.

As for `CCNC1CCN(c2ccc3cc(C(=O)Nc4cc5cc(C)nn5cc4OC)sc3n2)C1` (single isomer, unassigned) [Compound 212], the IC50 was under 100 nM.

Consider `CCNC1CCN(c2ccc3cc(C(=O)Nc4cc5cc(C)nn5cc4OC)sc3n2)C1` (single isomer, unassigned) [Compound 213], for which the IC50 was under 100 nM.

In turn, `COc1cc2nn(C)cc2cc1NC(=O)c1cc2ccc(N3CC[C@]4(CCCN4C)C3)nc2s1` (single isomer, unassigned) [Compound 222] had an IC50 of under 100 nM.

Regarding `COc1cc2nn(C)cc2cc1NC(=O)c1cc2ccc(N3CC[C@@]4(CCCN4C)C3)nc2s1` (single isomer, unassigned) [Compound 223], the IC50 was under 100 nM.

On to `COc1cn2nc(C)cc2cc1NC(=O)c1cc2ccc(N3CCC4(CCCN4C)C3)nc2s1` (single isomer, unassigned) [Compound 224], for which the IC50 is under 100 nM.

With `COc1cn2nc(C)cc2cc1NC(=O)c1cc2ccc(N3CCC4(CCCN4C)C3)nc2s1` (single isomer, unassigned) [Compound 225], the IC50 was under 100 nM.

`COc1c(NC(=O)c2cc3ccc(N4CCC5(CCCN5C)C4)nc3s2)cn2cc(C)nc2c1F` (single isomer, unassigned) [Compound 239] yielded an IC50 of under 100 nM.

In turn, `COc1cc2nn(C)cc2cc1NC(=O)c1cc2ccc(N3CC[C@@H](N(C)C)C3)nc2s1` (single isomer, unassigned) [Compound 241] came in with an IC50 of under 100 nM.

Turning to `COc1c(NC(=O)c2cc3ccc(N4CCC5(CCCN5C)C4)nc3s2)cn2cc(C)nc2c1F` (single isomer, unassigned) [Compound 242], the IC50 was under 100 nM.

`COc1cc2nn(C)cc2cc1NC(=O)c1cc2ccc(N3CCC(N(C)C)C3)nc2s1` (single isomer, unassigned) [Compound 244] registered an IC50 of under 100 nM.

`COc1cc2nc(C)cn2cc1NC(=O)c1cc2ccc(N3CC[C@]4(CCCN4C)C3)nc2s1` (single isomer, unassigned) [Compound 251] had a 50% inhibitory concentration (IC50) of 100 to 1000 nM.

For `COc1cc2nc(C)cn2cc1NC(=O)c1cc2ccc(N3CC[C@@]4(CCCN4C)C3)nc2s1` (single isomer, unassigned) [Compound 252], the 50% inhibitory concentration (IC50) is under 100 nM.

`Cc1cn2cc(NC(=O)c3cc4ccc(N5CC[C@@]6(CCCN6C)C5)nc4s3)nc(C(F)F)c2n1` (single isomer, unassigned) [Compound 254] displayed a concentration for half-maximal inhibition (IC50) of under 100 nM.

`Cc1cn2cc(NC(=O)c3cc4ccc(N5CC[C@]6(CCCN6C)C5)nc4s3)nc(C(F)F)c2n1` (single isomer, unassigned) [Compound 255] came in with an IC50 of under 100 nM.

`COc1cc2nn(C)cc2cc1NC(=O)c1cc2ncc(N3CCC4(CCN4C)C3)nc2s1` (single isomer, unassigned) [Compound 264] had an IC50 of under 100 nM.

The compound `COc1c(NC(=O)c2cc3ccc(C4CCN(C)C4)nc3s2)cc2cn(C)nc2c1F` (single isomer, unassigned) [Compound 265] had an IC50 of under 100 nM.

The compound `COc1c(NC(=O)c2cc3ccc(C4CCN(C)C4)nc3s2)cc2cn(C)nc2c1F` (single isomer, unassigned) [Compound 266] yielded a half-maximal inhibitory concentration (IC50) of under 100 nM.

With `Cc1cn2cc(NC(=O)c3cc4ccc(N5CCC(N(C)C)C5)nc4s3)ccc2n1` (stereo in doubt) [Compound 25, (R)-6-(3-(dimethylamino)pyrrolidin-1-yl)-N-(2-methylimidazo[1,2-a]pyridin-6-yl)thieno[2,3-b]pyridine-2-carboxamide], the IC50 fell in the range of 100 to 1000 nM.

`Cc1cn2cc(NC(=O)c3cc4ccc(N5CCC(N(C)C)C5)nc4s3)ccc2n1` (stereo in doubt) [Compound 26, (S)-6-(3-(dimethylamino)pyrrolidin-1-yl)-N-(2-methylimidazo[1,2-a]pyridin-6-yl)thieno[2,3-b]pyridine-2-carboxamide] registered an IC50 of 100 to 1000 nM.

In turn, `Cc1cn2cc(NC(=O)c3cc4ccc(N5CC[C@H]6CN(C)CC[C@H]65)nc4s3)ccc2n1` (stereo in doubt) [Compound 28, N-(2-methylimidazo[1,2-a]pyridin-6-yl)-6-((3aS,7aR)-5-methyloctahydro-1H-pyrrolo[3,2-c]pyridin-1-yl)thieno[2,3-b]pyridine-2-carboxamide] had an IC50 of 1000 to 9000 nM.

On to `Cc1cn2cc(NC(=O)c3cc4ccc(N5CCC6CCN(C)C6C5)nc4s3)ccc2n1` (stereo in doubt) [Compound 30, N-(2-methylimidazo[1,2-a]pyridin-6-yl)-6-((3aR,7aR)-1-methyloctahydro-6H-pyrrolo[2,3-c]pyridin-6-yl)thieno[2,3-b]pyridine-2-carboxamide], for which the 50% inhibitory concentration (IC50) is 100 to 1000 nM.

Take `Cc1cn2cc(NC(=O)c3cc4ccc(N5C[C@H]6C[C@@H]5CN6C(C)C)nc4s3)ccc2n1` (stereo in doubt) [Compound 34, 6-((1R,4R)-5-isopropyl-2,5-diazabicyclo[2.2.1]heptan-2-yl)-N-(2-methylimidazo[1,2-a]pyridin-6-yl)thieno[2,3-b]pyridine-2-carboxamide]: the IC50 is under 100 nM.

As for `Cc1cn2cc(NC(=O)c3cc4ccc(N5CC6CCN(C)C6C5)nc4s3)ccc2n1` (stereo in doubt) [Compound 43, 6-((3aR,6aR)-1-methylhexahydropyrrolo[3,4-b]pyrrol-5(1H)-yl)-N-(2-methylimidazo[1,2-a]pyridin-6-yl)thieno[2,3-b]pyridine-2-carboxamide], the IC50 was 100 to 1000 nM.

In turn, `CCN[C@H]1CCN(c2ccc3cc(C(=O)Nc4cc(F)c5nc(C)cn5c4)sc3n2)C1` (stereo in doubt) [Compound 67, 6-[(3S)-3-(ethylamino)pyrrolidin-1-yl]-N-(8-fluoro-2-methyl-imidazo[1,2-a]pyridin-6-yl)thieno[2,3-b]pyridine-2-carboxamide] returned an IC50 of under 100 nM.

In turn, `CCN[C@@H]1CCN(c2ccc3cc(C(=O)Nc4cc(F)c5nc(C)cn5c4)sc3n2)C1` (stereo in doubt) [Compound 68, 6-[(3R)-3-(ethylamino)pyrrolidin-1-yl]-N-(8-fluoro-2-methyl-imidazo[1,2-a]pyridin-6-yl)thieno[2,3-b]pyridine-2-carboxamide] registered a half-inhibitory concentration (IC50) of under 100 nM.

Regarding `Cc1cn2cc(NC(=O)c3nc4ccc(N5CC[C@@H](N6CCC6)C5)nc4s3)cc(F)c2n1` (stereo in doubt) [Compound 92, (rel-(R)-5-(3-(azetidin-1-yl)pyrrolidin-1-yl)-N-(8-fluoro-2-methylimidazo[1,2-a]pyridin-6-yl)thiazolo[5,4-b]pyridine-2-carboxamide], the IC50 was under 100 nM.

`COc1cc(NC(=O)c2cc3nc(N4C[C@H]5CN(C)C[C@H]54)ccc3o2)cn2cc(C)nc12` (stereo in doubt) [Compound 168, N-(8-methoxy-2-methyl-imidazo[1,2-a]pyridin-6-yl)-5-[(1R,5S)-3-methyl-3,6-diazabicyclo[3.2.0]heptan-6-yl]furo[3,2-b]pyridine-2-carboxamide] displayed an IC50 of under 100 nM.

Turning to `Cc1cn2cc(NC(=O)c3cc4ccc(N5CCC(N(C)C)C5)nc4s3)ccc2n1` (stereo not shown) [Compound 1, 6-[3-(dimethylamino)pyrrolidin-1-yl]-N-(2-methylimidazo[1,2-a]pyridin-6-yl)thieno[2,3-b]pyridine-2-carboxamide], the IC50 was 1000 to 9000 nM.

The compound `Cc1cc(NC(=O)c2cc3ccc(N4C[C@@H](C)N[C@@H](C)C4)nc3s2)cc2cn(C)nc12` [Compound 2, N-(2,7-dimethylindazol-5-yl)-6-[(3S,5R)-3,5-dimethylpiperazin-1-yl]thieno[2,3-b]pyridine-2-carboxamide] showed an IC50 of under 100 nM.

Compound `Cc1cn2cc(NC(=O)c3cc4ccc(N5CCN(C)CC5)nc4s3)nc(C)c2n1` [Compound 3, N-(2,8-dimethylimidazo[1,2-a]pyrazin-6-yl)-6-(4-methylpiperazin-1-yl)thieno[2,3-b]pyridine-2-carboxamide] had an IC50 of 100 to 1000 nM.

The compound `Cc1cc(NC(=O)c2cc3ccc(N4CCC(N(C)C)C4)nc3s2)cc2cn(C)nc12` (stereo not shown) [Compound 4, N-(2,7-dimethyl-2H-indazol-5-yl)-6-(3-(dimethylamino)pyrrolidin-1-yl)thieno[2,3-b]pyridine-2-carboxamide] yielded a half-maximal inhibitory concentration (IC50) of 100 to 1000 nM.

Take `Cc1cn2cc(NC(=O)c3cc4ccc(N5CCC(N(C)C)C5)nc4s3)nc(C)c2n1` (stereo not shown) [Compound 5, 6-(3-(dimethylamino)pyrrolidin-1-yl)-N-(2,8-dimethylimidazo[1,2-a]pyrazin-6-yl)thieno[2,3-b]pyridine-2-carboxamide]: the IC50 was in the range of 100 to 1000 nM.

`Cc1cn2cc(NC(=O)c3cc4ccc(N5CC[C@@H](N(C)C)C5)nc4s3)ncc2n1` [Compound 6, 6-[(3R)-3-(dimethylamino)pyrrolidin-1-yl]-N-(2-methylimidazo[1,2-a]pyrazin-6-yl)thieno[2,3-b]pyridine-2-carboxamide] came in with a 50% inhibitory concentration (IC50) of 100 to 1000 nM.

The compound `Cc1cc(NC(=O)c2cc3nc(N4CCC(N(C)C)C4)ccc3o2)cc2cn(C)nc12` (stereo not shown) [Compound 7, N-(2,7-dimethyl-2H-indazol-5-yl)-5-(3-(dimethylamino)pyrrolidin-1-yl)furo[3,2-b]pyridine-2-carboxamide] returned a half-inhibitory concentration (IC50) of 1000 to 9000 nM.

Take `Cc1cn2cc(NC(=O)c3cc4nc(N5CC[C@H](N(C)C)C5)ccc4o3)cc(F)c2n1` [Compound 8, 5-[(3S)-3-(dimethylamino)pyrrolidin-1-yl]-N-(8-fluoro-2-methyl-imidazo[1,2-a]pyridin-6-yl)furo[3,2-b]pyridine-2-carboxamide]: the 50% inhibitory concentration (IC50) was 1000 to 9000 nM.
